# Results from US11773146B2, “Disruption of the WAVE3 protein complex for suppression of invasion and metastasis” (UNIVERSITY OF GEORGIA RESEARCH FOUNDATION, INC., priority 2015, dated 2023).
# Entries after “also recorded” stand apart in the source; their conditions may differ. Bridges are numbered along the chain shown (N, C = ends). Where no end group is shown, it is not given here. [ ]: non-standard residue; d: D form. S5 = C=CCCC[C@](C)(N)C(=O)O
# Legend:
# [1] = test system: MDA-MB-231 and Hs578T cells; test: Cell proliferation, viability and toxicity with WANT3; format: cell-based
# Excerpt: (§1) MDA-MB-231, Hs578T and T47D breast cancer cell lines were obtained directly from American Type Culture Collection (Rockville, Md.). MDA-MB-231 and T47D and have been verified using SNP-CGH (Teng Y, et al. Int J Cancer 2011 129:2825-2835) for characteristic cytogenetic changes. The ATCC Cell Authentication Testing service confirmed the identity of Hs578T using STR DNA fingerprinting analysis. Standard cell culture, transient transfections, RT-PCR, western blotting, immunoprecipitation (IP), flow cytometry, Biotin-Avidin pulldown, lentiviral transduction, cell proliferation and Transwell invasion assays were carried out as described previously (Teng Y, et al. Int J Cancer 2011 129:2825-2835; Teng Y, et al. J Biol Chem 2012 287:10051-10059; Teng Y, et al. Carcinogenesis 2013 34:1994-1999).
# WASF3 = test: Western blot of WASF3 stability after WANT3; format: cell-based
# Excerpt: as §1
# MDA-MB-231 cells [2] = test: Transwell invasion assay (WANT peptides); format: cell-based
# Excerpt: There are currently no small molecules that target WASF3 function directly, but targeting the WRC may provide a means of suppressing invasion.
# NCKAP1 = test: Western blot of NCKAP1 protein after WANT3; format: cell-based; settings: 10 μM
# Excerpt: as §1
# MDA-MB-231 cells [3] = settings: 37° C., after 7 days
# Procedure: To evaluate the stability of these SPs, WANT3 was incubated in serum containing medium for varying lengths of time (1-7 days) at 37° C. and then this medium was added to MDA-MB-231 cells to evaluate the ability of the preincubated peptides to suppress invasion.
# [4] = molecular target: T1, WASF3 complex (Homo sapiens); test: IP of WASF3 complex after WANT3 or WAHM1 (phosphoactivation, RAC1 engagement); format: cell-based; settings: MDA-MB-231 cells
# T1 construct: endogenous in cells; host or cells: MDA-MB-231
# Excerpt: as §1
# [5] = concentration range of 2.5-20 μM
# T1 sequence (Q7L576 whole entry, one chain of several): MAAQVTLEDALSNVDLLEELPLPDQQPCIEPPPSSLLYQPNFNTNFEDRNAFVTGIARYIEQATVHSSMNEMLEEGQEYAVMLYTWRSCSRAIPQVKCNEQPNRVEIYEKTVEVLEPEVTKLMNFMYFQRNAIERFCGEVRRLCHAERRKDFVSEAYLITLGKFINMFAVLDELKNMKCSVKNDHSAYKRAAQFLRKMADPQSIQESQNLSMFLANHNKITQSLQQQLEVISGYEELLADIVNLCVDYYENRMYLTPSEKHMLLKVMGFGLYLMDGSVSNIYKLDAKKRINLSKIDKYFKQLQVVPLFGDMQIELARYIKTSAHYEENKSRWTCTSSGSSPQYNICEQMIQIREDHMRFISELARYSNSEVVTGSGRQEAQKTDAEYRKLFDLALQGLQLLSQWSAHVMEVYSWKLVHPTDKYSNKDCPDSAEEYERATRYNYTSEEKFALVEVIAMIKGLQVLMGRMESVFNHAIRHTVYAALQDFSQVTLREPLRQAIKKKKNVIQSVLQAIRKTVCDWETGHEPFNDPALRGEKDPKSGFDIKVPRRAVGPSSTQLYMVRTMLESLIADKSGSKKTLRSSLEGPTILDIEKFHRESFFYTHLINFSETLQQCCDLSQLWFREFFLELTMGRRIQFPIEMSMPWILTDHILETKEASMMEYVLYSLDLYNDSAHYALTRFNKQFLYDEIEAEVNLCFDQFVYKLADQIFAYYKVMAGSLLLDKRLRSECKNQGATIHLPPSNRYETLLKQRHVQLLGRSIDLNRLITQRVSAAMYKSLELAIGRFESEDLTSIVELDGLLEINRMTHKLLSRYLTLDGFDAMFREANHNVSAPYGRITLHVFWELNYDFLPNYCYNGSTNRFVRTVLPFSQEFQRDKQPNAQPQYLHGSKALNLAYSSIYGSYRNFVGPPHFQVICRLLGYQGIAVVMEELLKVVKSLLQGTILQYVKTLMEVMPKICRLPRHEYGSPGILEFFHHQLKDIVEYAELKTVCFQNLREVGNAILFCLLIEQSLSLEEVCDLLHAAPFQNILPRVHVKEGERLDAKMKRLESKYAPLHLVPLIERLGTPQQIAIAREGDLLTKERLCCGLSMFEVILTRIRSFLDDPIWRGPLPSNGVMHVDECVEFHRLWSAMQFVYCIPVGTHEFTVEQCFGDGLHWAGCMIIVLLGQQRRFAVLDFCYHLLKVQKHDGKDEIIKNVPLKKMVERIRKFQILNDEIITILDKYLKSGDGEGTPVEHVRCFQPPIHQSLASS
sequence,measurement,setting,value
"VLXRNAXHAVYK (VL[S5]RNA[S5]HAVYK-NH2; staple 3-7; not fully specified (N-terminus); also: FITC label (in alias), site not given here) [WANT3, WASF3-NCKAP1 Target stapled peptide, NCKAP1 peptide mimic; X is (S)-2-(4′-pentenyl)alanine]",cell proliferation,[1]; 10 μM,without affecting cell proliferation
same,in vitro cell toxicity,[1]; 10 μM,minimal
same,cell proliferation rate,[1]; [5],does not affect
same,viability,[1]; [5],does not affect
same,concentration achieving maximal effect on WASF3 stability,WASF3,20 µM
same,WASF3 stability / protein levels,"WASF3; 10 μM, compared with scrambled peptide",significant destabilization of WASF3; also recorded: suppresses both WASF3 and NCKAP1 protein levels
same,"destabilization of WASF3, WANT3 compared with WHAM1",WASF3; MDA-MB-231 cells,more efficient in destabilizing WASF3
same,dose dependence of WASF3 destabilization,WASF3; MDA-MB-231 cells,suppresses WASF3 protein levels in a dose-dependent manner; also recorded: dose-dependent destabilization of the WASF3 protein
same,"suppression of invasion, WAHM1 compared with WANT3",MDA-MB-231 cells [2],comparable suppression of invasion
same,invasion potential,MDA-MB-231 cells [2]; final concentration of 10 μM,highly significant suppression of invasion; also recorded: significantly suppresses
same,invasion at increased concentration,MDA-MB-231 cells [2]; high dose 20 μM compared with low dose,greater suppression of invasion; also recorded: more remarkable reduction
same,NCKAP1 protein levels,NCKAP1,loss of the NCKAP1 protein; also recorded: suppresses both WASF3 and NCKAP1 protein levels
same,suppression of invasion after preincubation in serum-containing medium,MDA-MB-231 cells [3],residual effect on suppression of invasion
same,"engagement of RAC1 with the WASF3 complex, WANT3 compared with WHAM1",[4],more significant
same,"phosphoactivation of WASF3, WANT3 compared with WAHM1",[4],more significantly
